Experiments:
Type in all cases: nucleic-acid assay
Nucleic Acid [1] = test: Stabilization of 5'-AGAGAGACAGAAAAA-3' ssDNA sequence assessed as melting temperature at pH7 using 100 mM NaCl
Nucleic Acid [2] = test: Stabilization of 5'-AGAGAGAAAGAAAAA-3' ssDNA sequence assessed as melting temperature at pH7 using 100 mM NaCl
Nucleic Acid [3] = test: Stabilization of 5'-AGAGAGAGAGAAAAA-3' ssDNA sequence assessed as melting temperature at pH7 using 100 mM NaCl
Nucleic Acid [4] = test: Stabilization of 5'-AGAGAGATAGAAAAA-3' ssDNA sequence assessed as melting temperature at pH7 using 100 mM NaCl

Row | Tm (Nucleic Acid [1]) [°C] | Tm (Nucleic Acid [2]) [°C] | Tm (Nucleic Acid [3]) [°C] | Tm (Nucleic Acid [4]) [°C] | SMILES
1 | 34 | 30 | 37 | 34 | Cc1cn([C@H]2C[C@H](OP(=O)(O)OC[C@H]3O[C@@H](n4cc(C)c(=O)[nH]c4=O)C[C@@H]3OP(=O)(O)OC[C@H]3O[C@@H](n4cc(C)c(N)nc4=O)C[C@@H]3OP(=O)(O)OC[C@H]3O[C@@H](n4cc(C)c(=O)[nH]c4=O)C[C@@H]3OP(=O)(O)OC[C@H]3O[C@@H](n4cc(C)c(N)nc4=O)C[C@@H]3OP(=O)(O)OC[C@H]3O[C@@H](n4cc(C)c(=O)[nH]c4=O)C[C@@H]3O)[C@@H](COP(=O)(O)O[C@H]3C[C@H](n4cc(C)c(=O)[nH]c4=O)O[C@@H]3COP(=O)(O)O[C@H]3C[C@H](c4cn(C56CC7CC(CC(C7)C5)C6)nn4)O[C@@H]3COP(=O)(O)O[C@H]3C[C@H](n4cc(C)c(=O)[nH]c4=O)O[C@@H]3COP(=O)(O)O[C@H]3C[C@H](n4cc(C)c(N)nc4=O)O[C@@H]3COP(=O)(O)O[C@H]3C[C@H](n4cc(C)c(=O)[nH]c4=O)O[C@@H]3COP(=O)(O)O[C@H]3C[C@H](n4cc(C)c(=O)[nH]c4=O)O[C@@H]3COP(=O)(O)O[C@H]3C[C@H](n4cc(C)c(=O)[nH]c4=O)O[C@@H]3COP(=O)(O)O[C@H]3C[C@H](n4cc(C)c(=O)[nH]c4=O)O[C@@H]3COP(=O)(O)O[C@H]3C[C@H](n4cc(C)c(=O)[nH]c4=O)O[C@@H]3CO)O2)c(=O)nc1N
2 | 38 | 37 | 40 | 40 | Cc1cn([C@H]2C[C@H](OP(=O)(O)OC[C@H]3O[C@@H](n4cc(C)c(=O)[nH]c4=O)C[C@@H]3OP(=O)(O)OC[C@H]3O[C@@H](n4cc(C)c(N)nc4=O)C[C@@H]3OP(=O)(O)OC[C@H]3O[C@@H](n4cc(C)c(=O)[nH]c4=O)C[C@@H]3OP(=O)(O)OC[C@H]3O[C@@H](n4cc(C)c(N)nc4=O)C[C@@H]3OP(=O)(O)OC[C@H]3O[C@@H](n4cc(C)c(=O)[nH]c4=O)C[C@@H]3O)[C@@H](COP(=O)(O)O[C@H]3C[C@H](n4cc(C)c(=O)[nH]c4=O)O[C@@H]3COP(=O)(O)O[C@H]3C[C@H](c4cn(CSc5ccccc5)nn4)O[C@@H]3COP(=O)(O)O[C@H]3C[C@H](n4cc(C)c(=O)[nH]c4=O)O[C@@H]3COP(=O)(O)O[C@H]3C[C@H](n4cc(C)c(N)nc4=O)O[C@@H]3COP(=O)(O)O[C@H]3C[C@H](n4cc(C)c(=O)[nH]c4=O)O[C@@H]3COP(=O)(O)O[C@H]3C[C@H](n4cc(C)c(=O)[nH]c4=O)O[C@@H]3COP(=O)(O)O[C@H]3C[C@H](n4cc(C)c(=O)[nH]c4=O)O[C@@H]3COP(=O)(O)O[C@H]3C[C@H](n4cc(C)c(=O)[nH]c4=O)O[C@@H]3COP(=O)(O)O[C@H]3C[C@H](n4cc(C)c(=O)[nH]c4=O)O[C@@H]3CO)O2)c(=O)nc1N
